Experimental data: PMC3912022, “A Fluorescence-Based Assay for Measuring the Redox Potential of 5-Lipoxygenase Inhibitors” (PLoS ONE, 2014)
“Also recorded” adds a separate entry of the source. One block for each compound: values may come before it.

How the values were obtained:
Type in all cases: biochemical
Human recombinant 5-LO [1] = biological target: T1, Human recombinant 5-LO (Homo sapiens, UniProt P09917); test: Redox absorbance assay (13(S)-HpODE absorbance at 234 nm, pseudo-peroxidase activity); conditions: for Redox absorbance, Δabs: absorbance at 234 nm, change over 180 seconds, average ± SD of triplicate
T1 construct: purchased Cayman Chemical
T1 sequence (P09917 1-674): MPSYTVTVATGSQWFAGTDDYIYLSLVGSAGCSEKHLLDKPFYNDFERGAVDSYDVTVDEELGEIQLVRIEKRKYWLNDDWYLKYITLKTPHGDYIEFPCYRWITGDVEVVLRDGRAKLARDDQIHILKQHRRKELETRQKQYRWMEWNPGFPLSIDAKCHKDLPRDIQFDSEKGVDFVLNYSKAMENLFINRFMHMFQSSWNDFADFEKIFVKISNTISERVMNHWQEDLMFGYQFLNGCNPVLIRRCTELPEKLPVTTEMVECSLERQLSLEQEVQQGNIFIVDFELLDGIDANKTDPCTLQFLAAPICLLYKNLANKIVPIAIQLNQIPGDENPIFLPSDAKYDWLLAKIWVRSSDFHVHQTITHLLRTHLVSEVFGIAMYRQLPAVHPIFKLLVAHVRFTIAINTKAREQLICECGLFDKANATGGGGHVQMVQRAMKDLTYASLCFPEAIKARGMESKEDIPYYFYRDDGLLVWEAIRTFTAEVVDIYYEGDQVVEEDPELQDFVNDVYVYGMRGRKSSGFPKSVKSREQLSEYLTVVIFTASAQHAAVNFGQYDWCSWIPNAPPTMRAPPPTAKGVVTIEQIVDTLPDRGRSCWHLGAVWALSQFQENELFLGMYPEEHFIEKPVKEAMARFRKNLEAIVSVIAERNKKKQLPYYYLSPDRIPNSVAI
From the text: (§1) Lipid peroxide is consumed when 5-LO is activated to the ferric iron form. The enzyme remains activated during the dioxygenation reaction cycle. If a redox inhibitor is present, it reduces the catalytic iron into the ferrous form and inhibits the enzyme reaction. Another lipid peroxide must be consumed to re-activate 5-LO to the ferric form. As a result, reductions in the amount of lipid peroxide in the reaction mixture signify redox activity. […] The absorbance-based method measures the amount of peroxide by its absorbance at 234 nm, and the fluorescence-based method measures it by analyzing its reaction with H2DCFDA.
The redox absorbance assay was carried out as described by Zweifel, et al.. Specifically, 10 µl of 1 mM inhibitor solution was mixed with 490 µl of 20 µM 13-HpODE solution. After 3 minutes of incubation at room temperature, the solution was transferred to a cuvette. The reaction started when 500 µl of the 20 unit/ml enzyme solution was added to the peroxide-inhibitor mixture in the cuvette. The absorbance of 13(S)-HpODE at 234 nm was measured immediately after mixing, using a SpectraMax M5 spectrophotometer. Data points were collected for 3 minutes. The reaction buffer consisted of 50 mM potassium phosphate buffer (pH 7.6), 0.1 mM EDTA, 100 µM ATP, and 0.3 mM CaCl2.
The accuracy and efficacy of the redox absorbance assay were determined by testing the selected compounds. The absorbance of 13(S)-HpODE was measured at 234 nm, and the values were recorded every second for 3 minutes.
In theory, because the extinction coefficient of 13(S)-HpODE at 234 nm is 23,000 M^−1 cm^−1, 10 µM 13(S)-HpODE contributes a maximum of 0.23 in absorbance.

Human recombinant 5-LO [2] = biological target: T1, Human recombinant 5-LO; test: Redox fluorescence assay (remaining 13(S)-HpODE by H2DCFDA fluorescence after pseudo-peroxidase reaction)
From the text: as §1
H2DCF-DA (60 µM) was pre-cleaved by 5-LO crude lysate in the reaction buffer (50 mM Tris, pH 7.5, 2 mM ethylenediaminetetraacetic acid [EDTA], 2 mM CaCl2, and 10 µM adenosine triphosphate [ATP]) for more than 10 minutes before the main reaction, as previously reported. In a 384-well plate, 10 µl of 450 mU/µl enzyme solution was distributed and mixed with 10 µl of inhibitor solution with various concentrations. 13(S)-HpODE (10 µM; 20 µl) was added to each well to start the reaction. After 3 minutes, pre-cleaved H2DCF-DA dye (20 µl) was added and incubated for more than 10 minutes. The fluorescence signal was measured using a fluorometer at excitation and emission wavelengths of 485 and 530 nm, respectively. All steps were carried out at room temperature.
The highest and lowest compound concentrations in the serially diluted set were 100 µM and 1.69 nM, respectively. […] The final DMSO amount in the reaction mixture was kept at 1% throughout the experiments. […] Four wells without any inhibitors represented the “100% peroxide” control wells, and the average fluorescence values in the control wells were used for normalization of fluorescence data. The concentration points were duplicated in each test and the concentration-dependent fluorescence data were fitted with three-parameter logistic regression in Prism using the top and bottom constraints of 100 and 0, respectively.

Human recombinant 5-LO [3] = biological target: T1, Human recombinant 5-LO; test: Redox absorbance assay (13(S)-HpODE absorbance at 234 nm, pseudo-peroxidase activity)
[4] = 10 µM inhibitor, 234 nm, 3 min kinetic curve, Figure 2

Compound: CC(Cc1ccc(O)c(O)c1)C(C)Cc1ccc(O)c(O)c1 (centres unmarked) [NDGA, 4,4′-(2,3-dimethyl-1,4-butanediyl)bis-1,2-benzenediol]
absorbance pattern over time (redox / non-redox pattern) (Human recombinant 5-LO [1]; [4]): increases in the absorbance assay
Redox absorbance, Δabs (Human recombinant 5-LO [1]; 10 µM inhibitor): 0.009±0.007

Compound: Cn1nccc1-c1ccc(Sc2cccc(C3(C(N)=O)CCOCC3)c2)cc1 [PF4191834]
EC50 (Human recombinant 5-LO [2]): > 100 µM
Redox absorbance, Δabs (Human recombinant 5-LO [1]; 10 µM inhibitor): 0.015±0.005

Compound: CCCCCCC(Sc1nc(Cl)cc(Nc2cccc(C)c2C)n1)C(=O)O (centres unmarked) [YS121, 2-[[4-chloro-6-[(2,3-dimethylphenyl)amino]-2-pyrimidinyl]thio]-octanoic acid]
EC50 (Human recombinant 5-LO [2]): 77.2 ± 35.1 µM
Redox absorbance, Δabs (Human recombinant 5-LO [1]; 10 µM inhibitor): 0.008±0.005

Compound: CC(c1cc2ccccc2s1)N(O)C(N)=O (centres unmarked) [Zileuton, N-[1-benzo(b)thien-2-ylethyl]-N-hydroxy-urea]
absorbance pattern in substrate-depleted conditions (Human recombinant 5-LO [3]; 80 minutes after the start of the reaction, 234 nm, Figure 4): increased slowly over time
absorbance pattern over time (redox / non-redox pattern) (Human recombinant 5-LO [1]; [4]): clear redox pattern
reduction in absorbance (Human recombinant 5-LO [1]; [4]): 0.042
Redox absorbance, Δabs (Human recombinant 5-LO [1]; 10 µM inhibitor): −0.025±0.018
share of the decrease in absorbance in the first 20 seconds (Human recombinant 5-LO [1]; first 20 seconds of the reaction, Figure 2): about 50%

Compound: COc1ccc(/C=C2\SC(c3ccc(Cl)cc3)=NC2=O)cc1 [CAY10649, (Z)-2-(4-chlorophenyl)-5-(4-methoxybenzylidene)thiazol-4(5H)-one]
EC50 (Human recombinant 5-LO [2]): > 100 µM
Redox absorbance, Δabs (Human recombinant 5-LO [1]; 10 µM inhibitor): 0.014±0.011

Continued, in another order:

redox activity in absorbance assay carried out in the fluorescence assay buffer (Human recombinant 5-LO [3]; buffer of the redox fluorescence assay, Figure 4-C): redox activity was not detected
EC50 (Human recombinant 5-LO [2]): 0.13 ± 0.17 µM
Redox absorbance, Δabs (Human recombinant 5-LO [1]; 10 µM inhibitor): 0.015±0.005
Compound: N#CC(=Cc1ccc(O)c(O)c1)C(=O)OCC=Cc1ccccc1 [CDC, cinnamyl 3,4-dihydroxy-alpha-cyanocinnamate]
absorbance pattern over time (redox / non-redox pattern) (Human recombinant 5-LO [1]; [4]): perfect non-redox pattern; also recorded: increases in the absorbance assay

redox activity less than that of the stronger redox inhibitors (Human recombinant 5-LO [2]; fluorescence assay, relative to stronger redox inhibitors): 60%
absorbance pattern over time (redox / non-redox pattern) (Human recombinant 5-LO [1]; [4]): no changes in absorbance over time
Redox absorbance, Δabs (Human recombinant 5-LO [1]; 10 µM inhibitor): 0.005±0.003
Compound: O=C(O)C=Cc1ccc(O)c(O)c1 [Caffeic acid, 3,4-dihydroxy cinnamic acid]
